Measurements reported in patent US20200017496A1 (priority 2017, published 2020).
Where two headings read alike, the source gives them in different places.

What was measured:
Experiment in all cases: MIC of compounds alone and combined with antibacterials, broth microdilution (CLSI)
Format in all cases: cell-based
[1] = tested on: Enterobacter cloacae (ECL) isolates; settings: for MIC: Enterobacter cloacae
How it was run: (§1)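 Inoculum 5·10^5 CFU/mL (final), log phase, ca-MHB; 16-20 h, 35° C, ambient air. MIC = lowest conc. with no visible growth; ATB MIC read at each compound level.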

[2] = tested on: Klebsiella oxytoca (KOX) isolates; settings: for MIC: Klebsiella oxytoca
How it was run: as §1

[3] = tested on: Citrobacter koseri (CKR) isolates; settings: for MIC: Citrobacter koseri, read-out: MIC
How it was run: as §1

Structure (SMILES): C=CC1=C(C(=O)O)N2C(=O)[C@@H](NC(=O)/C(=N\OCC(=O)O)c3csc(N)n3)[C@H]2SC1 [FIX, Cefixime]
- MIC ATB in combination ([1]; ECL UFR70, AF1 @ 8 μg/mL): 2 µg/mL
- MIC ATB in combination ([1]; ECL UFR84, AF1 @ 4 μg/mL): 64 µg/mL
- MIC ATB in combination ([1]; ECL UFR84, AF1 @ 8 μg/mL): 16 µg/mL
- MIC ATB in combination ([1]; ECL UFR85, AF1 @ 4 μg/mL): 8 µg/mL
- MIC ATB in combination ([1]; ECL UFR85, AF1 @ 8 μg/mL): 0.5 µg/mL
- MIC ATB in combination ([1]; ECL UFR194, AF1 @ 4 μg/mL): 1 µg/mL
- MIC ATB in combination ([1]; ECL UFR194, AF1 @ 8 μg/mL): 2 µg/mL
- MIC ATB in combination ([1]; ECL UFR200, AF1 @ 4 μg/mL): 1 µg/mL
- MIC ATB in combination ([1]; ECL UFR200, AF1 @ 8 μg/mL): 0.5 µg/mL
- MIC ([1]; ATB alone, strain ECL UFR197 (TEM-1, CTX-M-15, OXA-1, OXA-48)): > 128 µg/mL
- MIC ([1]; ATB alone, strain ECL UFR198 (TEM-1, SHV-12, CTX-M-15, DHA-1, OXA-1, OXA-48)): > 128 µg/mL
- MIC ([1]; ATB combined with CLA @ 4 μg/ml, strain ECL UFR197 (TEM-1, CTX-M-15, OXA-1, OXA-48), read-out: MIC): 128 µg/mL
- MIC ([1]; ATB combined with CLA @ 4 μg/ml, strain ECL UFR198 (TEM-1, SHV-12, CTX-M-15, DHA-1, OXA-1, OXA-48)): > 128 µg/mL
- MIC ([1]; strain ECL 2185D (OXA-163), ATB alone): > 128 µg/mL
- MIC ([1]; strain ECL 2185D (OXA-163), CLA @ 4 μg/ml+ ATB): > 128 µg/mL
- MIC ([1]; strain ECL 190310 (AmpC), ATB alone): > 128 µg/mL
- MIC ([1]; strain ECL 190310 (AmpC), CLA @ 4 μg/ml+ ATB): > 128 µg/mL
- MIC ([1]; strain ECL 190408 (TEM-1, CTX-M-15, OXA-1), ATB alone): 512 µg/mL
- MIC ([1]; strain ECL 190408 (TEM-1, CTX-M-15, OXA-1), CLA @ 4 μg/ml+ ATB, read-out: MIC): 128 µg/mL
- MIC ([1]; strain ECL 200138 (AmpC), ATB alone): > 128 µg/mL
- MIC ([1]; strain ECL 200138 (AmpC), CLA @ 4 μg/ml+ ATB): > 128 µg/mL
- MIC ([1]; strain ECL 200322 (TEM-1, CTX-M-15, OXA-1), ATB alone): > 128 µg/mL
- MIC ([1]; strain ECL 260033 (AmpC), ATB alone): > 128 µg/mL
- MIC ([1]; strain ECL 260033 (AmpC), CLA @ 4 μg/ml+ ATB): > 128 µg/mL
- MIC ([1]; strain ECL 260253 (TEM-1, KPC-3), ATB alone): > 128 µg/mL
- MIC ([1]; strain ECL 260253 (TEM-1, KPC-3), CLA @ 4 μg/ml+ ATB, read-out: MIC): 64 µg/mL
- MIC ([1]; strain ECL 260323 (AmpC), ATB alone): > 128 µg/mL
- MIC ([1]; strain ECL 260323 (AmpC), CLA @ 4 μg/ml+ ATB): > 128 µg/mL
- MIC ([1]; strain ECL 260508 (TEM-1, CTX-M-15), ATB alone): > 128 µg/mL
- MIC ([1]; strain ECL 260508 (TEM-1, CTX-M-15), CLA @ 4 μg/ml+ ATB): 32 µg/mL
- MIC ([1]; strain ECL NEM146383 (AmpC), ATB alone): > 128 µg/mL
- MIC ([1]; strain ECL NEM146383 (AmpC), CLA @ 4 μg/ml+ ATB): > 128 µg/mL
- MIC ([1]; strain ECL P99 (AmpC), ATB alone): > 128 µg/mL
- MIC ([1]; strain ECL P99 (AmpC), CLA @ 4 μg/ml+ ATB): > 128 µg/mL
- MIC ([1]; strain ECL UFR12 (CTX-M-9, OXA-48), ATB alone): 16 µg/mL
- MIC ([1]; strain ECL UFR12 (CTX-M-9, OXA-48), CLA @ 4 μg/ml+ ATB): 8 µg/mL
- MIC ([1]; strain ECL UFR13 (TEM-1, SHV-12, CTX-M-9, OXA-48), ATB alone): > 128 µg/mL
- MIC ([1]; strain ECL UFR13 (TEM-1, SHV-12, CTX-M-9, OXA-48), CLA @ 4 μg/ml+ ATB, read-out: MIC): 128 µg/mL
- MIC ([1]; strain ECL UFR14 (TEM-1, SHV-12, CTX-M-15, DHA-1, OXA-1, OXA-48), ATB alone): > 128 µg/mL
- MIC ([1]; strain ECL UFR14 (TEM-1, SHV-12, CTX-M-15, DHA-1, OXA-1, OXA-48), CLA @ 4 μg/ml+ ATB): > 128 µg/mL
- MIC ([1]; strain ECL UFR60 (TEM-1, CTX-M-15, KPC-2), ATB alone): > 128 µg/mL
- MIC ([1]; strain ECL UFR60 (TEM-1, CTX-M-15, KPC-2), CLA @ 4 μg/ml+ ATB, read-out: MIC): 128 µg/mL
- MIC ([1]; strain ECL UFR70 (TEM-1, CTX-M-15, CMY-2, OXA-1, Porin loss), ATB alone): > 128 µg/mL
- MIC ([1]; strain ECL UFR70 (TEM-1, CTX-M-15, CMY-2, OXA-1, Porin loss), CLA @ 4 μg/ml+ ATB): > 128 µg/mL
- MIC ([1]; strain ECL UFR84 (TEM-1, AmpC, OXA-1), ATB alone): > 128 µg/mL
- MIC ([1]; strain ECL UFR84 (TEM-1, AmpC, OXA-1), CLA @ 4 μg/ml+ ATB): > 128 µg/mL
- MIC ([1]; strain ECL UFR85 (TEM-1, CTX-M-15, AmpC), ATB alone): > 128 µg/mL
- MIC ([1]; strain ECL UFR85 (TEM-1, CTX-M-15, AmpC), CLA @ 4 μg/ml+ ATB): > 128 µg/mL
- MIC ([1]; strain ECL UFR194 (OXA-48), ATB alone): 4 µg/mL
- MIC ([1]; strain ECL UFR194 (OXA-48), CLA @ 4 μg/ml+ ATB): 8 µg/mL
- MIC ([1]; strain ECL UFR195 (TEM-1, CTX-M-15, OXA-1, OXA-48), ATB alone): > 128 µg/mL
- MIC ([1]; strain ECL UFR195 (TEM-1, CTX-M-15, OXA-1, OXA-48), CLA @ 4 μg/ml+ ATB): > 128 µg/mL
- MIC ([1]; strain ECL UFR196 (TEM-1, CTX-M-15, OXA-1, OXA-48), ATB alone): > 128 µg/mL
- MIC ([1]; strain ECL UFR196 (TEM-1, CTX-M-15, OXA-1, OXA-48), CLA @ 4 μg/ml+ ATB): > 128 µg/mL
- MIC ([1]; strain ECL UFR200 (TEM-1, SHV-12, KPC-2), ATB alone): > 128 µg/mL
- MIC ([1]; strain ECL UFR200 (TEM-1, SHV-12, KPC-2), CLA @ 4 μg/ml+ ATB): 16 µg/mL
- MIC ATB in combination ([1]; strain ECL UFR195, antibacterial combined with AF1 @ 4 μg/mL): 4 µg/mL
- MIC ATB in combination ([1]; strain ECL UFR195, antibacterial combined with AF1 @ 8 μg/mL): <=0.25 μg/mL
- MIC ATB in combination ([1]; strain ECL UFR196, antibacterial combined with AF1 @ 4 μg/mL): 16 µg/mL
- MIC ATB in combination ([1]; strain ECL UFR196, antibacterial combined with AF1 @ 8 μg/mL): 4 µg/mL
- MIC ATB in combination ([1]; strain ECL UFR197, antibacterial combined with AF1 @ 4 μg/mL): 16 µg/mL
- MIC ATB in combination ([1]; strain ECL UFR197, antibacterial combined with AF1 @ 8 μg/mL): 1 µg/mL
- MIC ATB in combination ([1]; strain ECL UFR198, antibacterial combined with AF1 @ 4 μg/mL): 64 µg/mL
- MIC ATB in combination ([1]; strain ECL UFR198, antibacterial combined with AF1 @ 8 μg/mL): 64 µg/mL
- MIC ATB in combination ([2]; KOX UFR21, AF1 @ 4 μg/mL): 2 µg/mL
- MIC ATB in combination ([2]; KOX UFR21, AF1 @ 8 μg/mL): 1 µg/mL
- MIC ATB in combination ([2]; KOX UFR173, AF1 @ 4 μg/mL): <=0.25 μg/mL
- MIC ATB in combination ([2]; KOX UFR173, AF1 @ 8 μg/mL): <=0.25 μg/mL
- MIC ATB in combination ([2]; KOX UFR223, AF1 @ 4 μg/mL): <=0.25 μg/mL
- MIC ATB in combination ([2]; KOX UFR223, AF1 @ 8 μg/mL): <=0.25 μg/mL
- MIC ATB in combination ([2]; KOX UFR224, AF1 @ 4 μg/mL): <=0.25 μg/mL
- MIC ATB in combination ([2]; KOX UFR224, AF1 @ 8 μg/mL): <=0.25 μg/mL
- MIC ([2]; strain KOX UFR21 (TEM-1, CTX-M-15, OXA-48), ATB alone): > 128 µg/mL
- MIC ([2]; strain KOX UFR21 (TEM-1, CTX-M-15, OXA-48), CLA @ 4 μg/ml+ ATB): > 128 µg/mL
- MIC ([2]; strain KOX UFR173 (OXY2-2), ATB alone, read-out: MIC): 16 µg/mL
- MIC ([2]; strain KOX UFR173 (OXY2-2), CLA @ 4 μg/ml+ ATB, read-out: MIC): 4 µg/mL
- MIC ([2]; strain KOX UFR223 (SHV-11, OXA-48), ATB alone, read-out: MIC): ≤ 0.125 µg/mL
- MIC ([2]; strain KOX UFR223 (SHV-11, OXA-48), CLA @ 4 μg/ml+ ATB, read-out: MIC): ≤ 0.25 µg/mL
- MIC ([2]; strain KOX UFR224 (CTX-M-15, OXA-48), ATB alone): > 128 µg/mL
- MIC ([2]; strain KOX UFR224 (CTX-M-15, OXA-48), CLA @ 4 μg/ml+ ATB, read-out: MIC): 8 µg/mL
- MIC ATB in combination ([3]; CKO ROU, AF1 @ 4 μg/mL): <=0.25 μg/mL
- MIC ATB in combination ([3]; CKO ROU, AF1 @ 8 μg/mL): <=0.25 μg/mL
- MIC ATB in combination ([3]; CKO UFR149, AF1 @ 4 μg/mL): 0.5 µg/mL
- MIC ATB in combination ([3]; CKO UFR149, AF1 @ 8 μg/mL): <=0.25 μg/mL
- MIC ATB in combination ([3]; CKO UFR150, AF1 @ 4 μg/mL): 2 µg/mL
- MIC ATB in combination ([3]; CKO UFR150, AF1 @ 8 μg/mL): 1 µg/mL
- MIC ([3]; strain CKO ROU (TEM-1, SHV-12, CTX-M-15, OXA-1, OXA-48), ATB alone): 1 µg/mL
- MIC ([3]; strain CKO ROU (TEM-1, SHV-12, CTX-M-15, OXA-1, OXA-48), CLA @ 4 μg/ml+ ATB): 2 µg/mL
- MIC ([3]; strain CKO UFR149 (OXA-48), ATB alone): 0.5 µg/mL
- MIC ([3]; strain CKO UFR149 (OXA-48), CLA @ 4 μg/ml+ ATB): 1 µg/mL
- MIC ([3]; strain CKO UFR150 (TEM-1, OXA-48), ATB alone): 2 µg/mL
- MIC ([3]; strain CKO UFR150 (TEM-1, OXA-48), CLA @ 4 μg/ml+ ATB): 2 µg/mL
